The results in this text go back to patent US20240101531A1, “PYRIDINAMINE DERIVATIVES AND THEIR USE AS POTASSIUM CHANNEL MODULATORS” (Xenon Pharmaceuticals Inc., priority 2022, published 2024).

Counter-ions that a name gives are not always drawn. A value given as a limit tells only on which side of the number the result lay.

The target in this assay is human KV7.2/KV7.3 (Homo sapiens (Human), UniProt O43525+O43526). Put plainly: Potassium flux assay (IPG-2 AM dye). It is filed as cell-based. Conditions: TREX HEK 293 or HEK 293 cells expressing human KV7.2/KV7.3; arithmetic mean values. Put shortly: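 HEK 293 or TREX HEK 293 cells stably expressing human KV7.2/KV7.3 (tetracycline-induced where needed), loaded with IPG-2 AM, then compound for 20 min at room temperature. Flux triggered by K challenge buffer (10 mM KCl, pH 7.4), read at 530/558 nm; EC50 from 16-point 2-fold series from 30 μM, normalised to DMSO and reference modulator.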
The term EC50 denotes the midpoint of the concentration-response curve. `CC(=O)N1CC[C@H](Oc2ccc3c(Nc4ccc(Cl)nc4)nccc3c2)C1` [Example 111, (S)-1-(3-((1-((6-chloropyridin-3-yl)amino)isoquinolin-6-yl)oxy)pyrrolidin-1-yl)ethan-1-one]: the concentration giving a half-maximal response (EC50) is 1000 to 10000 nM.

For `CCOC(=O)C1(COc2ccc3c(Nc4ccc(Cl)nc4)nccc3c2)CC1` [Example 110, ethyl 1-(((1-((6-chloropyridin-3-yl)amino)isoquinolin-6-yl)oxy)methyl)cyclopropane-1-carboxylate], the EC50 is 1000 to 10000 nM.

For the molecule `COc1ncc(Nc2nccc3cc(OCc4cn[nH]c4C)ccc23)cn1` [Example 388, N-(2-methoxypyrimidin-5-yl)-6-((5-methyl-1H-pyrazol-4-yl)methoxy)isoquinolin-1-amine], the EC50 was below 1000 nM.

For the molecule `Clc1ccc(Nc2nccc3cc(OCc4nccs4)ccc23)cn1` [Example 212, N-(6-chloropyridin-3-yl)-6-(thiazol-2-ylmethoxy)isoquinolin-1-amine], the concentration for a half-maximal effect (EC50) lay within 1000 to 10000 nM.

On to `Cc1ccc(Nc2nccc3cc(OCc4c[nH]nc4C)ccc23)cn1` [Example 427, 6-((3-methyl-1H-pyrazol-4-yl)methoxy)-N-(6-methylpyridin-3-yl)isoquinolin-1-amine formate], for which the EC50 is below 1000 nM.

Regarding `CC1(C)OCC(COc2ccc3c(Nc4ccc(Cl)nc4)nccc3c2)O1` (stereo not drawn) [Example 299, N-(6-chloropyridin-3-yl)-6-((2,2-dimethyl-1,3-dioxolan-4-yl)methoxy)isoquinolin-1-amine], the 50% effective concentration (EC50) was below 1000 nM.

In the case of `N#C[C@H]1CCC[C@H](Oc2ccc3c(Nc4ccc(Cl)nc4)nccc3c2)C1` [Example 342, (1 S,3S)-3-((1-((6-chloropyridin-3-yl)amino)isoquinolin-6-yl)oxy)cyclohexane-1-carbonitrile], the EC50 fell in the range of 1000 to 10000 nM.

Consider `COC(=O)c1ccc2c(Nc3ccc(Cl)nc3)nccc2c1` [Example 10, methyl 1-((6-chloropyridin-3-yl)amino)isoquinoline-6-carboxylate], for which the half-maximal effective concentration (EC50) is 10000 to 30000 nM.

On to `CC(=O)N1CC[C@@H](Oc2ccc3c(Nc4ccc(Cl)nc4)nccc3c2)C1` [Example 112, (R)-1-(3-((1-((6-chloropyridin-3-yl)amino)isoquinolin-6-yl)oxy)pyrrolidin-1-yl)ethan-1-one], for which the EC50 lay within 1000 to 10000 nM.

As for `CC1(C)CC[C@@H](COc2ccc3c(Nc4ccc(Cl)nc4)nccc3c2)O1` [Example 405, (S)-N-(6-chloropyridin-3-yl)-6-((5,5-dimethyltetrahydrofuran-2-yl)methoxy)isoquinolin-1-amine], the EC50 fell in the range of 1000 to 10000 nM.

Consider `COc1cc(Nc2nccc3cc(OCC4(C)COC4)ccc23)cnc1Cl` [Example 36, N-(6-chloro-5-methoxypyridin-3-yl)-6-((3-methyloxetan-3-yl)methoxy)isoquinolin-1-amine], for which the EC50 was below 1000 nM.

Consider `COC1CN(CCOc2ccc3c(Nc4ccc(Cl)nc4)nccc3c2)C1` [Example 72, N-(6-chloropyridin-3-yl)-6-(2-(3-methoxyazetidin-1-yl)ethoxy)isoquinolin-1-amine], for which the EC50 fell in the range of 10000 to 30000 nM.

As for `Clc1ccc(Nc2nccc3cc(-c4cncnc4)ccc23)cn1` [Example 423, N-(6-chloropyridin-3-yl)-6-(pyrimidin-5-yl)isoquinolin-1-amine], the 50% effective concentration (EC50) lay within 10000 to 30000 nM.

For the molecule `Cc1nn(C)cc1C(C)Oc1ccc2c(Nc3ccc(Cl)nc3)nccc2c1` (racemic) [Example 173, N-(6-chloropyridin-3-yl)-6-(1-(1,3-dimethyl-1H-pyrazol-4-yl)ethoxy)isoquinolin-1-amine], the EC50 lay in the range of 1000 to 10000 nM.

On to `Fc1c(NCC2CC2)ccc2c(Nc3ccc(Cl)nc3)nccc12` [Example 232, N^1-(6-chloropyridin-3-yl)-N^6-(cyclopropylmethyl)-5-fluoroisoquinoline-1,6-diamine], for which the EC50 lay within 1000 to 10000 nM.

On to `Cc1cnc(Nc2ccc(Cl)nc2)c2[nH]ccc12` [Example 35, N-(6-chloropyridin-3-yl)-4-methyl-1H-pyrrolo[2,3-c]pyridin-7-amine], for which the concentration giving a half-maximal response (EC50) was 1000 to 10000 nM.

As for `Cn1ccc(COc2ccc3c(Nc4cnc(Cl)nc4)nccc3c2)n1` [Example 203, N-(2-chloropyrimidin-5-yl)-6-((1-methyl-1H-pyrazol-3-yl)methoxy)isoquinolin-1-amine], the concentration for a half-maximal effect (EC50) is below 1000 nM.

Turning to `Cc1ncc(Nc2nccc3cc(OCC4COC4)ccc23)cn1` [Example 221, N-(2-methylpyrimidin-5-yl)-6-(oxetan-3-ylmethoxy)isoquinolin-1-amine], the concentration giving a half-maximal response (EC50) was in the range of 1000 to 10000 nM.

As to `CC(Cc1cnn(C)c1)Oc1ccc2c(Nc3ccc(Cl)nc3)nccc2c1` (stereo not drawn) [Example 296, N-(6-chloropyridin-3-yl)-6-((1-(1-methyl-1H-pyrazol-4-yl)propan-2-yl)oxy)isoquinolin-1-amine], the EC50 lay in the range of 1000 to 10000 nM.

On to `Cc1ncc(Nc2nccc3cc(OCc4cnn(C)c4)cnc23)cn1` [Example 258, 3-((1-methyl-1H-pyrazol-4-yl)methoxy)-N-(2-methylpyrimidin-5-yl)-1,7-naphthyridin-8-amine], for which the EC50 is 1000 to 10000 nM.

`CCn1ccc(COc2ccc3c(Nc4ccc(Cl)nc4)nccc3c2)n1` [Example 188, N-(6-chloropyridin-3-yl)-6-((1-ethyl-1H-pyrazol-3-yl)methoxy)isoquinolin-1-amine formate]: the 50% effective concentration (EC50) was 1000 to 10000 nM.

With `N#CCC1(COc2ccc3c(Nc4cnc(Cl)nc4)nccc3c2)CC1` [Example 147, 2-(1-(((1-((2-chloropyrimidin-5-yl)amino)isoquinolin-6-yl)oxy)methyl)cyclopropyl)acetonitrile], the EC50 is below 1000 nM.

As to `CC(=O)N1CCC[C@H](Oc2ccc3c(Nc4ccc(Cl)nc4)nccc3c2)C1` [Example 122, (S)-1-(3-((1-((6-chloropyridin-3-yl)amino)isoquinolin-6-yl)oxy)piperidin-1-yl)ethan-1-one], the EC50 is 1000 to 10000 nM.

Take `CC1(C)CC1(C#N)COc1ccc2c(Nc3cnc(Cl)nc3)nccc2c1` (stereo not drawn) [Example 351, 1-(((1-((2-chloropyrimidin-5-yl)amino)isoquinolin-6-yl)oxy)methyl)-2,2-dimethylcyclopropane-1-carbonitrile]: the concentration for a half-maximal effect (EC50) was below 1000 nM.

On to `COCCOc1ccc2c(Nc3cnc(C)nc3)nccc2c1` [Example 37, 6-(2-methoxyethoxy)-N-(2-methylpyrimidin-5-yl)isoquinolin-1-amine], for which the EC50 lay in the range of 10000 to 30000 nM.

In the case of `CS(=O)(=Nc1ccc2c(Nc3ccc(Cl)nc3)nccc2c1)C1COC1` (stereo in doubt) [Example 277, (R)-((1-((6-chloropyridin-3-yl)amino)isoquinolin-6-yl)imino)(methyl)(oxetan-3-yl)-λ^6-sulfanone)], the EC50 is 1000 to 10000 nM.

As to `Clc1ncc(Nc2nccc3cc(OCC4CC4)ccc23)cn1` [Example 9, N-(2-chloropyrimidin-5-yl)-6-(cyclopropylmethoxy)isoquinolin-1-amine], the EC50 is below 1000 nM.

`CC(=O)N1CCC(Oc2ccc3c(Nc4ccc(Cl)nc4)nccc3c2)CC1` [Example 312, 1-(4-((1-((6-chloropyridin-3-yl)amino)isoquinolin-6-yl)oxy)piperidin-1-yl)ethan-1-one]: the EC50 was in the range of 1000 to 10000 nM.

Regarding `O[C@@H]1CC[C@@H](Oc2ccc3c(Nc4ccc(Cl)nc4)nccc3c2)C1` (racemic) [Example 103, rac-(1R,3R)-3-((1-((6-chloropyridin-3-yl)amino)isoquinolin-6-yl)oxy)cyclopentan-1-ol], the EC50 was below 1000 nM.

`N#CC(F)(COc1ccc2c(Nc3cnc(Cl)nc3)nccc2c1)C1CC1` (stereo not drawn) [Example 146, 3-((1-((2-chloropyrimidin-5-yl)amino)isoquinolin-6-yl)oxy)-2-cyclopropyl-2-fluoropropanenitrile]: the EC50 is below 1000 nM.

Take `Cc1ncc(Nc2nccc3cc(OCc4cncnc4)ccc23)cn1` [Example 308, N-(2-methylpyrimidin-5-yl)-6-(pyrimidin-5-ylmethoxy)isoquinolin-1-amine]: the 50% effective concentration (EC50) lay within 1000 to 10000 nM.

Regarding `N#CC1(COc2ccc3c(Nc4cnc(Cl)nc4)nccc3c2)CC1` [Example 207, 1-(((1-((2-chloropyrimidin-5-yl)amino)isoquinolin-6-yl)oxy)methyl)cyclopropane-1-carbonitrile], the EC50 is below 1000 nM.

As to `Clc1ccc(Nc2nccc3cc(OCCn4cccn4)ccc23)cn1` [Example 120, 6-(2-(1H-pyrazol-1-yl)ethoxy)-N-(6-chloropyridin-3-yl)isoquinolin-1-amine], the EC50 was in the range of 10000 to 30000 nM.
